Results on 14 compounds are retold here after patent US20250026721A1, “COMPOUNDS AND METHODS FOR MODULATING RAS-PI3K” (Vividion Therapeutics, Inc., priority 2023, published 2025).

Test [1] has as its system pAKT(S473) in H358 cell line. The test can be described thus: In vitro Phospho-AKT(S473) HTRF analysis in H358 cells. It is filed as cell-based. To be noted: for IC50 / Emax: Homo sapiens, NCI-H358, 0.5 h; for IC50: H358 cells, 30 minutes at 37° C.; for Emax: read-out: H358 pAKT Imax % control. The procedure: Example 5. In Vitro Phosgho-AKT(S473) Analysis
Functional activity of the compounds to inhibit pAKT were assessed in FaDu or H358 cell lines as indicated below.
• Complete Media • FBS, Corning catalog #35-010-CV • Anti-Anti, Gibco catalog #15240-062 • 96 well plate, Corning catalog #3610 • TrypLE, Gibco catalog #12604013 • Phospho-AKT(S473) HTRF kit, Cisbio catalog #64AKSPET
Cells were detached from the tissue culture flask with TrypLE. The cells were pelleted at 500×g for 5 min, TrypLe was removed and then resuspended in the necessary volume of media+1% FBS to give the appropriate cell density (17,500 cells/mL for FaDu; 20,000 cells/mL for H358). 100 μL of cell suspension/well was dispensed into the 96-well plate while keeping the outer wells of the plate free of cells and filled with PBS to prevent evaporation of interior wells. The plate was incubated at 37° C. and allowed to adhere overnight. The cells were treated with a dose response of compound and incubated at 37° C. for 30 minutes. The cells were then processed and pAKT(S473) levels were assessed following the specifications of the Cisbio HTRF kit.

A further test concerns the target T1, PIK3CA (Homo sapiens, UniProt P42336).
T1 construct: endogenous in cells; host or cells: Jurkat cell lysate
The test can be described thus: In vitro ELISA target engagement assay for PIK3CA in Jurkat cellular lysate (competition with PIK3CA Biotin Probe). It is filed as binding. Conditions: 1 hour at rt, then 500 nM PIK3CA Biotin Probe, read-out: Elisa Target Engagement Assay (TE50). Put shortly:
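Competition format in Jurkat lysate: compound (serial dilutions, top 200 μM) for 1 h at rt, then 500 nM final biotinylated PIK3CA probe for 1 h at rt. Sandwich ELISA with capture antibody and Neutravidin-HRP luminescence read-out measured probe-labelled PIK3CA, giving TE50.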

Test [2] deals with pAKT(S473) in FaDu cell line. In words: In vitro Phospho-AKT(S473) HTRF analysis in FaDu cells. The class given is cell-based. To be noted: for IC50 / Emax: Homo sapiens, 0.5 h; for IC50: FaDu cells, 30 minutes at 37° C.; for Emax: FaDu, read-out: FaDu pAKT Imax % control. A digest of the protocol: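 FaDu or H358 cells were plated overnight in medium with 1% FBS, then exposed to a compound dose response for 30 minutes at 37° C. Phospho-AKT(S473) levels were measured by HTRF.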

Another test concerns the target T2, PIK3CA_C242 (Homo sapiens, UniProt P42336).
T2 construct: endogenous in cells; host or cells: Jurkat cell lysate
In words: Proteomic TE50 (IA-DTB / TMT mass spectrometry) in Jurkat cell lysate. The class given is binding. Conditions: 1 hour at rt, 7-point dose response. Put shortly: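 Cysteine engagement was read by targeted TMT MS3 of the IA-DTB-labelled, streptavidin-enriched C242 tryptic peptide. Beforehand, Jurkat lysate was exposed to a 7-point 1:5 compound series for 1 h at rt, then to 200 μM IA-DTB for 1 h. Reporter S/N curves gave TE50.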

T1 sequence (P42336 whole entry): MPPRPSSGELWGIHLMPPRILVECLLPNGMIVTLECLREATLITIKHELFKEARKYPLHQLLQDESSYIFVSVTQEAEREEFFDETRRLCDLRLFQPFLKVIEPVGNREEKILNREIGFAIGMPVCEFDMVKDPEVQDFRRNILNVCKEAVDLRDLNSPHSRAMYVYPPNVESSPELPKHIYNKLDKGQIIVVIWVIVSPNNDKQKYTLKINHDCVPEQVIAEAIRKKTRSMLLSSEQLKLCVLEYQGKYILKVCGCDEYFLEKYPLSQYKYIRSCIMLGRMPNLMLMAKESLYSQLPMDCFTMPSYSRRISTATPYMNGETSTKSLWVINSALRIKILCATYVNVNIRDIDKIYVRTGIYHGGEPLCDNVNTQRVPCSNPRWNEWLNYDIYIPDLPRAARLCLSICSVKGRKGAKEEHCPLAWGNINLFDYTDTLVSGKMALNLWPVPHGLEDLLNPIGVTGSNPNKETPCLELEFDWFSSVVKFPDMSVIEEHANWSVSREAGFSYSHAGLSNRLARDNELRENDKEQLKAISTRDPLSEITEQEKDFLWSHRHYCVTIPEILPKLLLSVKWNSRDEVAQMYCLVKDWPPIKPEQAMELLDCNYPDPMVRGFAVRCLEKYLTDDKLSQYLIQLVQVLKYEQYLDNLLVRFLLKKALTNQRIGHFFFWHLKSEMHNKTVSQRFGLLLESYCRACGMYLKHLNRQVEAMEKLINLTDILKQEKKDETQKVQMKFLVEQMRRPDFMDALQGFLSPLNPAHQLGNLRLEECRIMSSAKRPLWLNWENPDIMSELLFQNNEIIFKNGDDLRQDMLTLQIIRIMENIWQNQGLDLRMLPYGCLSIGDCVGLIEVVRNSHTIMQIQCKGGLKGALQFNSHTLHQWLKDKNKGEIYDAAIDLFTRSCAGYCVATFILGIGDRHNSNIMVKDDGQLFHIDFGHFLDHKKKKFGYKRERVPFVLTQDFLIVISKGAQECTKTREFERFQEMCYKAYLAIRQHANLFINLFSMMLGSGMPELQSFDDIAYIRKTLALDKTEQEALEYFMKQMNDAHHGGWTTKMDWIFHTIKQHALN
T1 sequence (P27986 whole entry partner): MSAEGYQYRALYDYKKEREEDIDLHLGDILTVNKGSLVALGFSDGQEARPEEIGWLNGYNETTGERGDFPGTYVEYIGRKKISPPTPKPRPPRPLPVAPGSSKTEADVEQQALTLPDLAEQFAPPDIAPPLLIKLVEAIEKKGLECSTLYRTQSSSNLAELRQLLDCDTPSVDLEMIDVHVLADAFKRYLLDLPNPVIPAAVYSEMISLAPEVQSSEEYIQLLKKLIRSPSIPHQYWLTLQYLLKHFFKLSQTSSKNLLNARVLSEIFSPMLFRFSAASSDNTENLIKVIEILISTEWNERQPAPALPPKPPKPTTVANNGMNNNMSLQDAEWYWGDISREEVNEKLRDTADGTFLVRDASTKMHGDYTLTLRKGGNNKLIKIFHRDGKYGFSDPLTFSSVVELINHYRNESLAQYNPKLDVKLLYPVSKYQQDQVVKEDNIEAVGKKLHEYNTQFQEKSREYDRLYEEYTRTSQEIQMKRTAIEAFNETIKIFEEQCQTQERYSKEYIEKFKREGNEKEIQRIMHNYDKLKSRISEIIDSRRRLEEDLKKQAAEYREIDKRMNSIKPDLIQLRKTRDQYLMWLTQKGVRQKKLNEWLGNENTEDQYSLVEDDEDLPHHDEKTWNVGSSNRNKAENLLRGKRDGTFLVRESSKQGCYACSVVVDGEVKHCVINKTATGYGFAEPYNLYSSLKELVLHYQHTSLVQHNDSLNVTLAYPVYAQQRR
T2 sequence (P42336 whole entry): as the sequence (P42336 whole entry) above
T2 sequence (P27986 whole entry partner): as the sequence (P27986 whole entry partner) above

As to `C[C@H](/C=C\S(C)(=O)=O)NC(=O)[C@@]1(F)CCCN(C(=O)[C@H]2CN(CC(F)(F)F)CC[C@@H]2c2ccccc2Cl)CC1` (single isomer, unassigned) [Compound 308, (R)-1-((3*R,4*S)-4-(2-chlorophenyl)-1-(2,2,2-trifluoroethyl)piperidine-3-carbonyl)-4-fluoro-N-((R,Z)-4-(methylsulfonyl)but-3-en-2-yl) azepane-4-carboxamide], the values for the IC50 (in test [1]; at PIK3CA; in test [2]) were 408 nM, 850 nM and 580 nM, respectively. The Emax in test [1] came out at 91%; in test [2], 93.4%.

Consider `C[C@H](/C=C\S(C)(=O)=O)NC(=O)[C@@]1(F)CCCN(C(=O)[C@H]2CN(CCC(F)(F)F)C[C@H]2c2ccccc2Cl)CC1` [Compound 196, (R)-1-((3R,4R)-4-(2-chlorophenyl)-1-(3,3,3-trifluoropropyl)pyrrolidine-3-carbonyl)-4-fluoro-N-((R,Z)-4-(methylsulfonyl)but-3-en-2-yl)azepane-4-carboxamide], for which the figures for the IC50 (in test [1]; at PIK3CA; in test [2]) were 329 nM, 530 nM and 450 nM, respectively. The Emax in test [1] came out at 96.3%; in test [2], 86.4%.

On to `C[C@H](/C=C\S(C)(=O)=O)NC(=O)[C@@]1(F)CCCN(C(=O)[C@H]2CN(CC(F)(F)Cl)C[C@H]2c2ccccc2Cl)CC1` [Compound 195, (R)-1-((3R,4R)-1-(2-chloro-2,2-difluoroethyl)-4-(2-chlorophenyl)pyrrolidine-3-carbonyl)-4-fluoro-N-((R,Z)-4-(methylsulfonyl)but-3-en-2-yl)azepane-4-carboxamide], for which the IC50 was found to be 123 nM in test [1], 190 nM on PIK3CA and 113 nM in test [2]. The Emax in test [1] worked out at 85%; in test [2], 96.9%.

For the compound `C[C@H](/C=C\S(C)(=O)=O)NC(=O)[C@@]1(F)CCCN(C(=O)[C@H]2CN(Cc3ccccc3)C[C@H]2c2ccccc2Cl)CC1` (single isomer, unassigned) [Compound 305, (R)-1-((3*R,4*R)-1-benzyl-4-(2-chlorophenyl)pyrrolidine-3-carbonyl)-4-fluoro-N-((R,Z)-4-(methylsulfonyl)but-3-en-2-yl)azepane-4-carboxamide], the IC50 in test [1] turned out to be 396 nM; at PIK3CA, 650 nM; in test [2], 428 nM. Also, the Emax in test [1] was found to be 90.7%; in test [2], 94.3%.

Turning to `C[C@H](/C=C\S(C)(=O)=O)NC(=O)[C@@]1(F)CCCN(C(=O)[C@H]2CN(CC(F)F)C[C@H]2c2ccccc2Cl)CC1` [Compound 197, (R)-1-((3R,4R)-4-(2-chlorophenyl)-1-(2,2-difluoroethyl)pyrrolidine-3-carbonyl)-4-fluoro-N-((R,Z)-4-(methylsulfonyl)but-3-en-2-yl) azepane-4-carboxamide], the IC50 came to 103 nM in test [1], 134 nM on PIK3CA and 129 nM in test [2]. The Emax in test [1] worked out at 91.4%; in test [2] it was 89%.

Consider `C[C@@H](/C=C\S(C)(=O)=O)NC(=O)C1(F)CCN(S(=O)(=O)c2cnc(C(F)(F)F)cc2-c2ccccc2Cl)CC1` [Compound 208, (S,Z)-1-((4-(2-chlorophenyl)-6-(trifluoromethyl)pyridin-3-yl)sulfonyl)-4-fluoro-N-(4-(methylsulfonyl)but-3-en-2-yl)piperidine-4-carboxamide], for which the IC50 worked out at 81.6 nM in test [1], 53.7 nM at PIK3CA and 88.2 nM in test [2]. Further, the Emax in test [1] amounted to 95.9%.

For `C[C@H](/C=C\S(C)(=O)=O)NC(=O)[C@@]1(F)CCCN(C(=O)[C@H]2CN(CC(F)(F)F)C[C@H]2c2ccccc2Cl)CC1` [Compound 165, (R)-1-((3R,4R)-4-(2-chlorophenyl)-1-(2,2,2-trifluoroethyl)pyrrolidine-3-carbonyl)-4-fluoro-N—((R,Z)-4-(methylsulfonyl)but-3-en-2-yl)azepane-4-carboxamide], the results for the IC50 (in test [1]; on PIK3CA; in test [2]) were 115 nM, 164 nM and 214 nM, respectively. For the same compound, the Emax is 95.7% in test [1] and 96.7% in test [2].

With `C[C@H](/C=C\S(C)(=O)=O)NC(=O)[C@@]1(F)CCCN(C(=O)[C@H]2CN(CC(F)(F)F)C[C@H]2c2c(F)cccc2Cl)CC1` [Compound 171, (R)-1-((3R,4R)-4-(2-chloro-6-fluorophenyl)-1-(2,2,2-trifluoroethyl)pyrrolidine-3-carbonyl)-4-fluoro-N—((R,Z)-4-(methylsulfonyl)but-3-en-2-yl)azepane-4-carboxamide], the IC50 came out at 82.6 nM in test [1], 92.7 nM on PIK3CA and 78.9 nM in test [2]. Besides, the Emax in test [1] was determined as 101%; in test [2], 97.8%.

Consider `C[C@H]1C[C@](F)(C(=O)N[C@@H]2C=CS(=O)(=O)C2)CCN1C(=O)[C@H]1CN(CC(C)(F)F)C[C@H]1c1ccccc1Cl` (single isomer, unassigned) [Compound 221, (2*S,4*S)-1-((3R,4R)-4-(2-chlorophenyl)-1-(2,2-difluoropropyl)pyrrolidine-3-carbonyl)-N-((R)-1,1-dioxido-2,3-dihydrothiophen-3-yl)-4-fluoro-2-methylpiperidine-4-carboxamide], for which the IC50 in test [1] amounted to 123 nM; on PIK3CA it was 210 nM. For the same compound, in test [1], the Emax came out at 85%.

Take `COc1ccc(Cl)c(-c2cc(Cl)ncc2S(=O)(=O)N2CCC(F)(C(=O)N[C@H](C)/C=C\S(C)(=O)=O)CC2)c1` [Compound 217, (R,Z)-1-((6-chloro-4-(2-chloro-5-methoxyphenyl)pyridin-3-yl)sulfonyl)-4-fluoro-N-(4-(methylsulfonyl)but-3-en-2-yl)piperidine-4-carboxamide]: the IC50 in test [1] is 953 nM; at PIK3CA, 1450 nM; at PIK3CA_C242 it was 980 nM. In test [1], the Emax was determined as 74.6%.

Regarding `C[C@@H](/C=C\S(C)(=O)=O)NC(=O)[C@@]1(F)CCCN(C(=O)[C@H]2CN(CC(F)(F)F)C[C@H]2c2c(F)cccc2Cl)CC1` [Compound 297, (R)-1-((3R,4R)-4-(2-chloro-6-fluorophenyl)-1-(2,2,2-trifluoroethyl)pyrrolidine-3-carbonyl)-4-fluoro-N-((S,Z)-4-(methylsulfonyl)but-3-en-2-yl)azepane-4-carboxamide], in test [1], the IC50 was found to be 1500 nM and the Emax was 87.6%. The IC50 at PIK3CA was determined as 910 nM.

For the compound `C[C@H]1C[C@](F)(C(=O)N[C@@H]2C=CS(=O)(=O)C2)CCN1C(=O)[C@@H]1CN(CC(C)(F)F)C[C@@H]1c1cccc(F)c1Cl` (single isomer, unassigned) [Compound 225, (2*S,4*S)-1-((3*S,4*S)-4-(2-chloro-3-fluorophenyl)-1-(2,2-difluoropropyl)pyrrolidine-3-carbonyl)-N-((R)-1,1-dioxido-2,3-dihydrothiophen-3-yl)-4-fluoro-2-methylpiperidine-4-carboxamide], in test [1], the IC50 was found to be 465 nM and the Emax came to 78.8%. The IC50 on PIK3CA was 640 nM.

Consider `C[C@H](/C=C\S(C)(=O)=O)NC(=O)C1(F)CCN(S(=O)(=O)c2ccc(Br)cc2-c2ccccc2Cl)CC1` [Compound 47, 1-[4-bromo-2-(2-chlorophenyl)phenyl]sulfonyl-4-fluoro-N—[(Z,1R)-1-methyl-3-methylsulfonyl-allyl]piperidine-4-carboxamide], for which the “absolute inhibition of pAKT” value is listed as 40-89% in test [1] (H358 cell line, internal standard, variation between runs) and 43-98% in test [2] (FaDu cell line, internal standard, variation between runs). In addition, the IC50 in test [2] amounted to 96.5 nM. In addition, in test [2], the Emax stood at 100%.

With `C[C@H](/C=C\S(C)(=O)=O)NC(=O)C1(F)CCN(C(=O)[C@H]2CN(CC(C)(F)F)C[C@H]2c2ccccc2Cl)CC1` [Compound 179, 1-((3R,4R)-4-(2-chlorophenyl)-1-(2,2-difluoropropyl)pyrrolidine-3-carbonyl)-4-fluoro-N-((R,Z)-4-(methylsulfonyl)but-3-en-2-yl)piperidine-4-carboxamide], in test [1], the IC50 was determined as 165 nM and the Emax is 106%. The IC50 at PIK3CA was found to be 390 nM.
